Values quoted from earlier work, collected in patent publication US20090088367A1, “Treatment of Insulin Resistance/Metabolic Syndrome to Alleviate the Risks of Dementia” (Burnham Institute For Medical Research, priority 2004, published 2009).

Legend:
tau hyperphosphorylation = settings: in culture; okadaic acid-induced changes; Iqbal et al., J Neurochem 2003
[1] = test system: neurodegeneration induced by beta-amyloid(1-40); settings: Miguel-Hidalgo et al., Brain Res 2002
[2] = test system: APP/PS1 double mutant mice; settings: transgenic mouse with mutant amyloid precursor protein and presenilin I; Tanila et al., J Neurochem 2003

**Q.** For CC12CC3CC(C)(C1)CC(N)(C3)C2 [memantine, 1-amino-3,5-dimethyladamantine], which tau hyperphosphorylation (tau hyperphosphorylation) is on record?
**A.** reduce tau hyperphosphorylation

**Q.** And the “protection from intrahippocampal injection of Aβ” value [1]?
**A.** offer protection

**Q.** What about the “performance on behavioral tests (T-maze and Morris water maze)” value [2] of the same molecule?
**A.** improved performance
